This note sets out measurements from US20040121947A1, “Compounds which inhibit beta-secretase activity and methods of use thereof” (Oklahoma Medical Research Foundation, priority 2000, published 2004).

Molecules are shown by their SMILES. Where two headings read alike, the source gives them in different places. *1 amine or outer side, *2 acyl side, *3 side chain or, on linkers, in order; H or OH if unused. Where a SMILES comes first, the peptide text is derived from it. [ ]: non-standard residue; d: D form. LeuΨ(S-CHOHCH2)Ala = CC(C)C[C@H](N[*:1])[C@@H](O)C[C@@H](C)C(=O)[*:2]

One assay deals with T1, memapsin 1 (Homo sapiens, UniProt Q9Y5Z0).
T1 construct: pET-11 vector-derived residues 1-14 of promemapsin 1-T1 (N, cleaved yes); made in house; host or cells: E. coli
T1 sequence (Q9Y5Z0 63-466 limits assumed): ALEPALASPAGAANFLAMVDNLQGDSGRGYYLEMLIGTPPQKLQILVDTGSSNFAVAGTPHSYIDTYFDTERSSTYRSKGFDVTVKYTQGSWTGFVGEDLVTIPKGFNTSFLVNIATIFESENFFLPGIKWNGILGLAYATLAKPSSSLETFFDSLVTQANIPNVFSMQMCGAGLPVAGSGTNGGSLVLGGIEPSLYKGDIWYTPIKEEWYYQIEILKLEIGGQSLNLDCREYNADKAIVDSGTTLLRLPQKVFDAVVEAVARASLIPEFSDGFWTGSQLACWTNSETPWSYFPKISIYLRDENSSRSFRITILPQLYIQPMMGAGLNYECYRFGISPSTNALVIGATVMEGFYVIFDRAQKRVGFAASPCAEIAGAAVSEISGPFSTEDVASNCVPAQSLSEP
Description: Inhibition of memapsin 1 proteolytic activity, fluorogenic substrate FS-2. Format: biochemical. To be noted: for Ki: Table 9, read-out: Ki apparent Mep1. The procedure:
Vi/Vo depicts the ratio of initial cleavage velocities of the substrate FS-2 (Ermolieff, et al., Biochemistry […]:12450-12456 (2000)) by memapsin 1 or memapsin 2 in the absence (Vo) or presence (Vi) of a compound of the invention. […] The Vi/Vo values depicted in Table 1 were determined at conditions under which the enzyme and inhibitor concentrations were equal (e.g., about 80 nM, 100 nM).
The relationship of Ki (independent of substrate concentration) to Kiapp is a function of substrate concentration in the assay and the Km for cleavage of the substrate by either memapsin 1 or memapsin 2 by the relationship:
An aliquot of the inhibitor of known concentration in DMSO was diluted into 1.8 ml 0.1 M NaOAc, pH 4.0. DMSO and added to a final concentration of 10% (v/v), and memapsin 2 (final concentration of 80 nM), followed by a 20 minute equilibration at 37° C. Compounds were evaluated for the ability to inhibit memapsin 1 and memapsin 2 at concentrations between about 10 nM and about 10 μm of inhibitor.
The relationship of Ki (independent of substrate concentration) to Kiapp is a function of substrate concentration in the assay and the Km for cleavage of the substrate by either memapsin 1 or memapsin 2 by the relationship: […]

Another assay deals with T2, memapsin 2 (Homo sapiens, UniProt P56817).
T2 construct: pET-11 vector-derived residues 1-15 of promemapsin 2-T1 (N, cleaved yes); made in house; host or cells: E. coli
T2 sequence (P56817 41-454 limits assumed): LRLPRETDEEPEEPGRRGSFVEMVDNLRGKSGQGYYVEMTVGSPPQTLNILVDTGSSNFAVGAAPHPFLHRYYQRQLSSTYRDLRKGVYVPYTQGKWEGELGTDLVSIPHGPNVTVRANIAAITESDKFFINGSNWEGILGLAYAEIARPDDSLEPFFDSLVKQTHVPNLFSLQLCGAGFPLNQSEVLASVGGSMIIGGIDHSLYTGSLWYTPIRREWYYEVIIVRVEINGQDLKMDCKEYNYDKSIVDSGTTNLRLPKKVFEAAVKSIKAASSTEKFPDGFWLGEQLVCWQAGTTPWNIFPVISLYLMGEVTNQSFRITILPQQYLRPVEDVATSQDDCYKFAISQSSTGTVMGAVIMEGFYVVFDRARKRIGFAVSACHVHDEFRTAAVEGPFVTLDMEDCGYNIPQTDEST
Description: Inhibition of memapsin 2 proteolytic activity, fluorogenic substrate FS-2. The class given is biochemical. In a few lines:
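Spontaneously activated memapsin 2 (80 nM final) equilibrated with inhibitor (about 10 nM–10 μM) in 0.1 M NaOAc pH 4.0 with 10% DMSO for 20 min at 37 °C, with fluorogenic substrate FS-2. Ki converted from Ki apparent using substrate concentration and Km.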

[1] abbreviates: Table 9, read-out: Ki apparent Mep2.
Where [2] appears, read: memapsin 2, apparent Ki in presence of substrate FS-2, read-out: Ki app.
Setting [3] is: memapsin 2, independent of substrate, converted from Ki apparent, read-out: Ki.
Where [4] appears, read: enzyme concentration equals the compound concentration.
Setting [5] is: Ki, [I] < 100, memapsin 2, [I] < 100 (nM).

As to `CSCC[C@H](NC(=O)[C@@H](NC(=O)OC(C)(C)C)C(C)C)C(=O)N[C@@H](CC(C)C)[C@@H](O)C[C@@H](C)C(=O)N[C@H](C(=O)NCc1ccccc1)C(C)C` [MMI-017], the Ki at memapsin 1 is 1.2 nM; at memapsin 2 (setting [1]), 3.9 nM; at memapsin 2 (setting [2]) it was 3.9 nM; on memapsin 2 (setting [3]) it was 2.4 nM.
In the case of `CC(C)C[C@H](NC(=O)[C@H](CS(C)(=O)=O)NC(=O)[C@@H](NC(=O)OC(C)(C)C)C(C)C)[C@@H](O)C[C@@H](C)C(=O)N[C@H](C(=O)NCc1ccccc1)C(C)C` [MMI-026], the Ki at memapsin 1 worked out at 44.7 nM; at memapsin 2 (setting [1]), 15.9 nM; on memapsin 2 (setting [2]), 16 nM; at memapsin 2 (setting [3]), 9.97 nM.
For `CC(C)C[C@H](NC(=O)[C@H](CCS(C)(=O)=O)NC(=O)[C@@H](NC(=O)OC(C)(C)C)C(C)C)[C@@H](O)C[C@@H](C)C(=O)N[C@@H](C(=O)NCc1ccccc1)[C@@H](C)O` [MMI-073], the “% Inhibition Mep1” value at memapsin 1 (setting [4]) is reported as 38%. Moreover, the “% Inhibition Mep2” value at memapsin 2 (setting [4]) stood at 52%. Further, at memapsin 2 (ratio of % inhibition memapsin 1 / memapsin 2, 1 or less = greater inhibition of memapsin 2), the “% Inh (M1/M2)” value was found to be 0.73. Further, the Vi/Vo on memapsin 2 (ratio of initial cleavage velocities of FS-2 with/without compound, enzyme and inhibitor concentrations equal (e.g., about 80 nM, 100 nM)) is reported as 0.48.
For the compound `CSCC[C@H](NC(=O)OCCn1nc(C)cc1C)C(=O)N[C@@H](CC(C)C)[C@@H](O)C[C@@H](C)C(=O)N[C@@H](CC(C)C)C(=O)NC(C)C` [MMI-203], the Ki was 361 nM at memapsin 2 (setting [2]) and 225 nM at memapsin 2 (setting [3]).
On to `CC(C)C[C@H](NC(=O)OC(C)(C)C)C(=O)N[C@@H](CC1CCCO1)C(=O)N[C@@H](CC(C)C)[C@@H](O)C[C@@H](C)C(=O)N[C@@H](CC(C)C)C(=O)NC(C)C` (stereo partly shown) [MMI-205], for which the values for the Ki at memapsin 2 (setting [2]) and on memapsin 2 (setting [3]) were 48.8 nM and 30.5 nM, respectively.
For the compound `COc1cccc(C(=O)N[C@@H](CCSC)C(=O)N[C@@H](CC(C)C)[C@@H](O)C[C@@H](C)C(=O)N[C@@H](CC(C)C)C(=O)NC(C)C)c1OC` [MMI-206], the Ki on memapsin 2 (setting [5]) was 292 nM; on memapsin 2 (setting [2]), 1210 nM; at memapsin 2 (setting [3]), 758 nM.
As to `COc1ccccc1C(=O)N[C@@H](CCSC)C(=O)N[C@@H](CC(C)C)[C@@H](O)C[C@@H](C)C(=O)N[C@@H](CC(C)C)C(=O)NC(C)C` [MMI-207], the Ki was determined as 1830 nM at memapsin 2 (setting [5]), 1580 nM at memapsin 2 (setting [2]) and 988 nM at memapsin 2 (setting [3]).
As to `COc1ccc(C(=O)N[C@@H](CCSC)C(=O)N[C@@H](CC(C)C)[C@@H](O)C[C@@H](C)C(=O)N[C@@H](CC(C)C)C(=O)NC(C)C)cc1` [MMI-208], the Ki on memapsin 2 (setting [5]) stood at 407 nM; at memapsin 2 (setting [2]) it was 1950 nM; on memapsin 2 (setting [3]) it was 1220 nM.
For the compound `COc1cccc(C(=O)N[C@@H](CCSC)C(=O)N[C@@H](CC(C)C)[C@@H](O)C[C@@H](C)C(=O)N[C@@H](CC(C)C)C(=O)NC(C)C)c1` [MMI-209], the Ki on memapsin 2 (setting [2]) is 1300 nM; on memapsin 2 (setting [3]), 812 nM.
As for `CSCC[C@H](NC(=O)c1cccc(C)c1C)C(=O)N[C@@H](CC(C)C)[C@@H](O)C[C@@H](C)C(=O)N[C@@H](CC(C)C)C(=O)NC(C)C` [MMI-210], the Ki at memapsin 2 (setting [2]) worked out at 899 nM; on memapsin 2 (setting [3]) it was 562 nM.
`CSCC[C@H](NC(=O)[C@@H](NC(=O)OC(C)(C)C)C(C)C)C(=O)N[C@@H](CC(C)C)[C@@H](O)C[C@H](C(=O)N[C@@H](C)C(=O)NCc1ccccc1)C(C)C` [MMI-211]: the Ki was found to be 761 nM on memapsin 2 (setting [2]) and 476 nM on memapsin 2 (setting [3]).
Take `CSCC[C@H](NC(=O)OCn1nc(C)cc1C)C(=O)N[C@@H](CC(C)C)[C@@H](O)C[C@@H](C)C(=O)N[C@H](C(=O)NCc1ccco1)C(C)C` [MMI-212]: the Ki at memapsin 2 (setting [2]) turned out to be 71.1 nM; on memapsin 2 (setting [3]), 44.5 nM.
Turning to `CSCC[C@H](NC(=O)CCn1nc(C)cc1C)C(=O)N[C@@H](CC(C)C)[C@@H](O)C[C@@H](C)C(=O)N[C@H](C(=O)NCc1ccco1)C(C)C` [MMI-213], the Ki is 84.6 nM on memapsin 2 (setting [2]) and 52.9 nM on memapsin 2 (setting [3]).
The like results for `CSCC[C@H](NC(=O)C(C)Cn1nc(C)cc1C)C(=O)N[C@@H](CC(C)C)[C@@H](O)C[C@@H](C)C(=O)N[C@H](C(=O)NCc1ccco1)C(C)C` (stereo partly shown) [MMI-214] were, in that order, 19 nM and 11.9 nM.
The like results for `CC(C)C[C@H](NC(=O)OC(C)(C)C)C(=O)N[C@@H](CC1CCCO1)C(=O)N[C@@H](CC(C)C)[C@@H](O)C[C@@H](C)C(=O)N[C@@H](CC(C)C)C(=O)NC(C)C` (stereo partly shown) [MMI-215] were, in that order, 30.9 nM and 19.3 nM.
Take `CSCC[C@H](NC(=O)OCn1nc(C)cc1C)C(=O)N[C@@H](CC(C)C)[C@@H](O)C[C@@H](C)C(=O)N[C@@H](CC(C)C)C(=O)N1CCN(C)CC1` [MMI-216]: the results for the Ki at memapsin 2 (setting [2]) and on memapsin 2 (setting [3]) were 1200 nM and 753 nM, respectively.
On the same counts, the results for `CSCC[C@H](NC(=O)OCn1nc(C)cc1C)C(=O)N[C@@H](CC(C)C)[C@@H](O)C[C@@H](C)C(=O)N[C@H](C(=O)N1CCN(C)CC1)C(C)C` [MMI-217] are 1070 nM and 670 nM.
Take `CCCCNC(=O)[C@@H](NC(=O)C(C)(C)C[C@H](O)[C@H](CC(C)C)NC(=O)[C@H](CCSC)NC(=O)OCn1nc(C)cc1C)C(C)C` [MMI-218]: the figures for the Ki on memapsin 2 (setting [5]), on memapsin 2 (setting [2]) and on memapsin 2 (setting [3]) were 226 nM, 1800 nM and 1120 nM, respectively.
With `CSCC[C@H](NC(=O)OC(C)(C)Cn1nc(C)cc1C)C(=O)N[C@@H](CC(C)C)[C@@H](O)C[C@@H](C)C(=O)N[C@@H](CC(C)C)C(=O)NC(C)C` [MMI-219], the Ki turned out to be 1420 nM at memapsin 2 (setting [2]) and 889 nM on memapsin 2 (setting [3]).
The like results for `CSCC[C@H](NC(=O)OCCn1nc(C)c2c1CCC2)C(=O)N[C@@H](CC(C)C)[C@@H](O)C[C@@H](C)C(=O)N[C@@H](CC(C)C)C(=O)NC(C)C` [MMI-220] were, in that order, 4490 nM and 2810 nM.
For the compound `CSCC[C@H](NC(=O)OCCn1nc(C)c2c1CSC2)C(=O)N[C@@H](CC(C)C)[C@@H](O)C[C@@H](C)C(=O)N[C@@H](CC(C)C)C(=O)NC(C)C` [MMI-221], the Ki was 1910 nM at memapsin 2 (setting [2]) and 1190 nM on memapsin 2 (setting [3]).
On the same counts, the results for `CSCC[C@H](NC(=O)OCCn1nc(C)c2c1CS(=O)(=O)C2)C(=O)N[C@@H](CC(C)C)[C@@H](O)C[C@@H](C)C(=O)N[C@@H](CC(C)C)C(=O)NC(C)C` [MMI-222] are 2450 nM and 1530 nM.
On the same counts, the results for `Cc1cc(C)n(CCOC(=O)N[C@@H](CCN2CCOCC2)C(=O)N[C@@H](CC(C)C)[C@@H](O)C[C@@H](C)C(=O)N[C@@H](CC(C)C)C(=O)NC(C)C)n1` [MMI-223] are 8420 nM and 5280 nM.
The like results for `CSCC[C@H](NC(=O)OCn1nc(C)cc1C)C(=O)N[C@@H](CC(C)C)[C@@H](O)C[C@@H](C)C(=O)N[C@@H](CC(C)C)C(=O)NC(C)C` [MMI-224] were, in that order, 70 nM and 43.8 nM.
On to `CSCC[C@H](NC(=O)C(Cn1nc(C)cc1C)C(C)C)C(=O)N[C@@H](CC(C)C)[C@@H](O)C[C@@H](C)C(=O)N[C@H](C(=O)NCc1ccco1)C(C)C` (stereo partly shown) [MMI-225], for which the Ki is 41 nM at memapsin 2 (setting [2]) and 25.7 nM at memapsin 2 (setting [3]).
On the same counts, the results for `CSCC[C@H](NC(=O)C(C)Cn1nc(C)cc1C)C(=O)N[C@@H](CC(C)C)[C@@H](O)C[C@@H](C)C(=O)N[C@@H](CC(C)C)C(=O)NCc1ccco1` (stereo partly shown) [MMI-226] are 110 nM and 68.9 nM.
On the same counts, the results for `CSCC[C@H](NC(=O)O[C@H]1CCOC1)C(=O)N[C@@H](CC(C)C)[C@@H](O)C[C@@H](C)C(=O)N[C@@H](CC(C)C)C(=O)NC(C)C` [MMI-227] are 721 nM and 452 nM.
On the same counts, the results for `COCC[C@H](NC(=O)C(Cn1nc(C)cc1C)C(C)C)C(=O)N[C@@H](CC(C)C)[C@@H](O)C[C@@H](C)C(=O)N[C@H](C(=O)NCC(C)C)C(C)C` (stereo partly shown) [MMI-228] are 176 nM and 110 nM.
In the case of `CC(C)C[C@H](NC(=O)[C@H](CC(N)=O)NC(=O)[C@@H](N)C(C)C)[C@@H](O)C[C@@H](C)C(=O)N[C@@H](C)C(=O)N[C@@H](CCC(=O)O)C(=O)O` [OM01-1] (H-VN[LeuΨ(S-CHOHCH2)Ala]AE-OH), the Ki at memapsin 2 (memapsin 2, read-out: Ki) was 126 nM.
